Assay results from the CheMixHub ionic liquid set.

Assay: xn = mol fraction of the nth substance listed

CC(=O)[O-].CCCC[N+](CCCC)(CCCC)CCCC + CCCCCCCCCCCCOS(=O)(=O)[O-].[Na+] + O
viscosity [mPa·s], 100 kPa
Details	x2 = 1.81e-06, x1 = 0.0001802	x2 = 3.61e-06, x1 = 0.0001802	x2 = 5.42e-06, x1 = 0.0001802	x2 = 7.23e-06, x1 = 0.0001802	x2 = 9.04e-06, x1 = 0.0001802	x2 = 1.084e-05, x1 = 0.0001802	x2 = 1.265e-05, x1 = 0.0001802	x2 = 1.446e-05, x1 = 0.0001802	x2 = 1.626e-05, x1 = 0.0001802	x2 = 1.807e-05, x1 = 0.0001802
293.15 K	0.997	1	1.004	1.004	1.006	1.007	1.007	1.008	1.008	1.008
298.15 K	0.89	0.893	0.894	0.894	0.898	0.901	0.902	0.903	0.904	0.904
303.15 K	0.756	0.758	0.76	0.763	0.764	0.765	0.766	0.768	0.768	0.769
308.15 K	0.679	0.68	0.681	0.683	0.684	0.684	0.686	0.687	0.688	0.688
313.15 K	0.605	0.606	0.606	0.608	0.609	0.609	0.611	0.612	0.612	0.613
318.15 K	0.569	0.572	0.572	0.574	0.575	0.575	0.577	0.578	0.578	0.579

CC(=O)[O-].CCCC[N+](CCCC)(CCCC)CCCC + CCCCCCCCCCCC[N+](C)(C)C.[Br-] + O
viscosity [mPa·s], 100 kPa
Details	x2 = 5.421e-05, x1 = 0.0001802	x2 = 0.0001084, x1 = 0.0001801	x2 = 0.0001626, x1 = 0.0001801	x2 = 0.0002168, x1 = 0.0001801	x2 = 0.000271, x1 = 0.0001801	x2 = 0.0003252, x1 = 0.0001801	x2 = 0.0003793, x1 = 0.0001801	x2 = 0.0004335, x1 = 0.0001801	x2 = 0.0004877, x1 = 0.0001801	x2 = 0.0005418, x1 = 0.0001801
293.15 K	1.029	1.031	1.032	1.033	1.034	1.034	1.035	1.035	1.035	1.035
298.15 K	0.916	0.919	0.92	0.922	0.924	0.926	0.928	0.929	0.93	0.931
303.15 K	0.808	0.81	0.813	0.816	0.817	0.82	0.82	0.82	0.822	0.821
308.15 K	0.724	0.726	0.727	0.729	0.729	0.73	0.731	0.731	0.732	0.732
313.15 K	0.657	0.659	0.662	0.664	0.665	0.667	0.667	0.668	0.669	0.669
318.15 K	0.607	0.607	0.609	0.61	0.611	0.613	0.613	0.617	0.618	0.619

O=S(=O)([O-])[O-].[Na+].[Na+] + CCCCCCCCCCCC[N+](C)(C)C.[Br-] + O
298.15 K, 101 kPa
Details	electrical conductivity [S/m]
x2 = 0, x1 = 0.0001802	0.219
x2 = 0, x1 = 0.001799	1.527
x2 = 1.98e-06, x1 = 0.0001802	0.2192
x2 = 4.2e-06, x1 = 0.001799	1.523
x2 = 6.31e-06, x1 = 0.0001802	0.2208
x2 = 1.064e-05, x1 = 0.0001802	0.2225
x2 = 1.241e-05, x1 = 0.001799	1.523
x2 = 1.516e-05, x1 = 0.0001802	0.2243
x2 = 2.061e-05, x1 = 0.001799	1.525
x2 = 2.201e-05, x1 = 0.0001802	0.2272
x2 = 2.882e-05, x1 = 0.001799	1.526
x2 = 3.067e-05, x1 = 0.0001802	0.231
x2 = 3.667e-05, x1 = 0.001799	1.528
x2 = 3.951e-05, x1 = 0.0001802	0.2348
x2 = 4.451e-05, x1 = 0.001799	1.531
x2 = 5.088e-05, x1 = 0.0001802	0.2397
x2 = 5.235e-05, x1 = 0.001799	1.533
x2 = 6.188e-05, x1 = 0.0001802	0.2448
x2 = 6.221e-05, x1 = 0.001799	1.536
x2 = 6.932e-05, x1 = 0.001799	1.538
x2 = 7.271e-05, x1 = 0.0001801	0.2498
x2 = 7.662e-05, x1 = 0.001799	1.54
x2 = 8.353e-05, x1 = 0.0001801	0.2543
x2 = 8.391e-05, x1 = 0.001799	1.542
x2 = 9.048e-05, x1 = 0.001799	1.544
x2 = 9.435e-05, x1 = 0.0001801	0.2592
x2 = 9.741e-05, x1 = 0.001799	1.546
x2 = 0.0001038, x1 = 0.001799	1.548
x2 = 0.0001048, x1 = 0.0001801	0.2637
x2 = 0.0001104, x1 = 0.001799	1.55
x2 = 0.0001153, x1 = 0.0001801	0.2682
x2 = 0.0001173, x1 = 0.001799	1.553
x2 = 0.0001239, x1 = 0.001799	1.556
x2 = 0.0001257, x1 = 0.0001801	0.2729
x2 = 0.0001315, x1 = 0.001799	1.56
x2 = 0.0001364, x1 = 0.0001801	0.2774
x2 = 0.0001404, x1 = 0.001799	1.563
x2 = 0.0001467, x1 = 0.0001801	0.2821
x2 = 0.0001478, x1 = 0.001798	1.565
x2 = 0.0001549, x1 = 0.001798	1.567
x2 = 0.0001569, x1 = 0.0001801	0.2866
x2 = 0.0001623, x1 = 0.001798	1.569
x2 = 0.0001672, x1 = 0.0001801	0.2912
x2 = 0.0001702, x1 = 0.001798	1.571
x2 = 0.0001775, x1 = 0.0001801	0.2956
x2 = 0.0001777, x1 = 0.001798	1.573
x2 = 0.0001851, x1 = 0.001798	1.575
x2 = 0.0001876, x1 = 0.0001801	0.3
x2 = 0.000193, x1 = 0.001798	1.577
x2 = 0.0001975, x1 = 0.0001801	0.3042
x2 = 0.0001997, x1 = 0.001798	1.579
x2 = 0.0002074, x1 = 0.001798	1.58
x2 = 0.0002076, x1 = 0.0001801	0.308
x2 = 0.000215, x1 = 0.001798	1.582
x2 = 0.0002175, x1 = 0.0001801	0.311
x2 = 0.000222, x1 = 0.001798	1.584
x2 = 0.0002275, x1 = 0.0001801	0.3132
x2 = 0.0002287, x1 = 0.001798	1.586
x2 = 0.0002358, x1 = 0.001798	1.588
x2 = 0.0002368, x1 = 0.0001801	0.3149
x2 = 0.0002431, x1 = 0.001798	1.589
x2 = 0.0002466, x1 = 0.0001801	0.3165
x2 = 0.0002504, x1 = 0.001798	1.591
x2 = 0.0002565, x1 = 0.0001801	0.3178
x2 = 0.0002612, x1 = 0.001798	1.594
x2 = 0.000266, x1 = 0.0001801	0.3191
x2 = 0.0002739, x1 = 0.001798	1.597
x2 = 0.0002776, x1 = 0.0001801	0.3205
x2 = 0.0002909, x1 = 0.0001801	0.322
x2 = 0.0003061, x1 = 0.0001801	0.3238
x2 = 0.0003232, x1 = 0.0001801	0.3257
x2 = 0.0003423, x1 = 0.0001801	0.3278
x2 = 0.0003636, x1 = 0.0001801	0.3305
x2 = 0.0003892, x1 = 0.0001801	0.3335

CC(C)C[C@H](N)C(=O)O + CCCCCCCCCCCC[N+](C)(C)Cc1ccccc1.[Cl-] + O
101 kPa, x1 = 0.00893, x2 = 0
Details	electrical conductivity [S/m]
293.15 K	0.00107
298.15 K	0.00125
303.15 K	0.00136
308.15 K	0.00152
313.15 K	0.00168

CC(C)[C@H](N)C(=O)O + CCCCCCCCCCCC[N+](C)(C)Cc1ccccc1.[Cl-] + O
electrical conductivity [S/m], 101 kPa
Details	293.15 K	298.15 K	303.15 K	308.15 K	313.15 K
x1 = 0.0008894, x2 = 0	0.000591	0.000675	0.000763	0.000854	0.000953
x1 = 0.001757, x2 = 0	0.00102	0.00116	0.00131	0.00147	0.00164

CCCCCCCCC(=O)O + CCCCCCCC[N+](CCCCCCCC)(CCCCCCCC)CCCCCCCC.[Br-]
Details	electrical conductivity [S/m]
298.1 K, 100 kPa, x2 = 0.333	4.5e-06

c1ccncc1 + CCCCCCCC[n+]1ccc2ccccc2c1.O=S(=O)([N-]S(=O)(=O)C(F)(F)F)C(F)(F)F
Details	viscosity [mPa·s]
338.15 K, 101 kPa, x1 = 1	0.54

CN1CCCN(C)C1=O + CCCCCCCCn1cc[n+](C)c1.[Cl-]
viscosity [mPa·s], 100 kPa
Details	288.15 K	293.15 K	298.15 K	303.15 K	308.15 K	313.15 K	318.15 K	323.15 K	328.15 K	333.15 K
x2 = 0	4	3.51	3.11	2.78	2.5	2.266	2.064	1.891	1.737	1.595
x2 = 0.0999	15.3	12.48	9.9	8.46	7.27	6.32	5.53	4.88	4.35	3.9
x2 = 0.1998	52.2	40.6	31.8	25.6	21.04	17.5	14.79	12.66	10.9	9.46
x2 = 0.2997	176	128.8	95.4	78.6	61.1	48.4	39	31.9	26.4	21.86
x2 = 0.4004	412	287	224	163.5	122	93.5	72.9	57.5	46.8	38.3
x2 = 0.4993	1016	673	463	326	248	192	144.4	107.7	84.2	67.5
x2 = 0.5981	2302	1467	972	661	462	340	250	186	143.4	110.7
x2 = 0.6984	–	–	1797	1194	815	575	412	311	233	178
x2 = 0.7997	–	–	–	1924	1289	890	632	458	340	257

CCCCCCCCCCCCCC[P+](CCCCCC)(CCCCCC)CCCCCC.c1nnn[n-]1 + CCCCCC[n+]1ccn(C)c1.O=S(=O)([N-]S(=O)(=O)C(F)(F)F)C(F)(F)F
100 kPa
Details	viscosity [mPa·s]
283.15 K, x2 = 0.102	1711
283.15 K, x2 = 0.299	1361
283.15 K, x2 = 0.6	662
283.15 K, x2 = 0.8	342
288.15 K, x2 = 0.102	1155
288.15 K, x2 = 0.201	1055
288.15 K, x2 = 0.8	247
288.15 K, x2 = 0.9	158
298.15 K, x2 = 0.102	567
298.15 K, x2 = 0.6	245
303.15 K, x2 = 0.201	382
303.15 K, x2 = 0.701	145
308.15 K, x2 = 0.201	286
308.15 K, x2 = 0.299	253
308.15 K, x2 = 0.8	86
308.15 K, x2 = 0.9	59
313.15 K, x2 = 0.6	112
318.15 K, x2 = 0.349	141
